Some test systems named below: 786-0; DU-145; EKVX; HT-29; IGROV-1; K562; MDA-MB-435; NCI-H226; NCI-H460; OVCAR-4; RPMI-8226; SF-539; SK-MEL-28; SN12C; SNB-75; SR; TK-10; UACC-257; UO-31; A498.
Experiment in all cases: inhibition of tumour cell growth, NCI panel, 48 h

Each structure is given as a SMILES string.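 Growth conditions: 96-well plates. Treatment: test compound, 48 hours, 5 concentrations. Analysis: linear interpolation between bracketing concentrations; unreached endpoints set to highest concentration. GI50 = concentration required for 50% inhibition of growth.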 Calls of active or inactive are those of the source. Cut-off read from the data, not from the text of the source: active = GI50 up to about 1.1 µM and inactive = higher.

As to `O=C1NC(S(=O)(=O)O)=NNC12c1ccccc1-c1ccccc12`, the GI50 in the assay with 786-0, in the assay with DU-145, with EKVX, in the assay with HT-29, with IGROV-1 and in the assay with K562 was > 10 µM (inactive) in each case. Moreover, the GI50 in the assay with MDA-MB-435, in the assay on NCI-H226, in the assay on NCI-H460, in the assay on OVCAR-4, in the assay with RPMI-8226 and in the assay on SF-539 was > 10 µM (inactive) throughout. The GI50 in the assay on SK-MEL-28, in the assay on SN12C, in the assay with SNB-75, in the assay with SR, with TK-10 and with UACC-257 was > 10 µM (inactive) each time. The GI50 in the assay on UO-31 is > 10 µM (inactive).
In the case of `N#CC(C#N)/N=N/c1ccc(-c2nc3ccccc3o2)cc1`, the GI50 in the assay with 786-0 is 14.4 µM (inactive); in the assay on A498 it was 13.9 µM (inactive); with DU-145 it was 13.3 µM (inactive); in the assay with EKVX it was 11.7 µM (inactive); in the assay with HT-29, 12.8 µM (inactive); in the assay on IGROV-1, 19.4 µM (inactive). The GI50 is 8.61 µM (inactive) in the assay with K562; 16.5 µM (inactive) with MDA-MB-435; 13.9 µM (inactive) in the assay on NCI-H460; 12 µM (inactive) with OVCAR-4; 12.2 µM (inactive) in the assay on SF-539; 6.12 µM (inactive) in the assay on SK-MEL-28. For the same molecule, the GI50 in the assay on SN12C was 13.2 µM (inactive); with SNB-75, 24.4 µM (inactive); in the assay on SR it was 16.2 µM (inactive); with TK-10 it was 11 µM (inactive); in the assay with UACC-257 it was 4.41 µM (inactive); in the assay on UO-31, 13 µM (inactive).
In the case of `N[C@H]1CCN(c2c(F)cc3c(=O)c(C(=O)O)cn4c3c2Oc2c-4ccc3c2ccc2ccccc23)C1`, the GI50 in the assay on 786-0 is 0.128 µM (active); with A498 it was 10.4 µM (inactive); in the assay on DU-145 it was 0.942 µM (active); with EKVX it was 0.377 µM (active); in the assay with HT-29, 0.117 µM (active); in the assay on IGROV-1 it was 0.284 µM (active). Also, the GI50 in the assay with K562 is 0.583 µM (active); in the assay with MDA-MB-435, 1.05 µM (active); in the assay with NCI-H226, 4.02 µM (inactive); in the assay on NCI-H460 it was 0.115 µM (active); in the assay on OVCAR-4, 0.535 µM (active); with RPMI-8226 it was 0.226 µM (active). Moreover, the GI50 is 1.25 µM (inactive) in the assay with SF-539; 2.52 µM (inactive) in the assay with SK-MEL-28; 0.774 µM (active) in the assay on SN12C; 0.0532 µM (active) in the assay on SR; 0.408 µM (active) in the assay on TK-10; 0.288 µM (active) with UACC-257. Also, the GI50 in the assay on UO-31 was 1.64 µM (inactive).
In the case of `Cc1ccc([N+](=O)[O-])c2c(NCC(O)CO)ccnc12` (stereo unspecified), the GI50 was 30.5 µM (inactive) in the assay on 786-0; 51.4 µM (inactive) with DU-145; 19.8 µM (inactive) in the assay with EKVX; 30.7 µM (inactive) in the assay with HT-29; 43.2 µM (inactive) with IGROV-1; 50 µM (inactive) with K562. Besides, the GI50 with MDA-MB-435 is 71.6 µM (inactive); with NCI-H226, 73.1 µM (inactive); with NCI-H460 it was 20 µM (inactive); with OVCAR-4 it was 52.8 µM (inactive); in the assay on RPMI-8226 it was 84.9 µM (inactive); in the assay with SF-539, 19.3 µM (inactive). The GI50 with SK-MEL-28 was > 100 µM (inactive); in the assay with SN12C it was 75.3 µM (inactive); in the assay with SNB-75, > 100 µM (inactive); with SR, 95.1 µM (inactive); with TK-10, 48.2 µM (inactive); in the assay on UACC-257, 36.4 µM (inactive). The GI50 in the assay on UO-31 is 74.3 µM (inactive).
As for `O=C1CSC(c2ccc([N+](=O)[O-])cc2)N1c1ccc(-c2ccc(-n3c(-c4ccccc4)nc4ccccc4c3=O)cc2)cc1` (stereo unspecified), the GI50 in the assay with 786-0 is 70.8 µM (inactive); in the assay with A498, > 100 µM (inactive); in the assay with DU-145, > 100 µM (inactive); in the assay with EKVX, 38.5 µM (inactive); in the assay with HT-29, 49.7 µM (inactive); with K562, 34.4 µM (inactive). For the same molecule, the GI50 is 59.7 µM (inactive) in the assay on MDA-MB-435; 56.1 µM (inactive) in the assay on NCI-H226; 38.4 µM (inactive) in the assay with NCI-H460; 34.2 µM (inactive) with OVCAR-4; 32.5 µM (inactive) in the assay on RPMI-8226; > 100 µM (inactive) with SF-539. For the same molecule, the GI50 was 81.3 µM (inactive) in the assay on SK-MEL-28; > 100 µM (inactive) with SN12C; 18.7 µM (inactive) in the assay with SR; 66.2 µM (inactive) with TK-10; > 100 µM (inactive) with UACC-257; 46.8 µM (inactive) with UO-31.
On to `O=S(=O)(Nc1nc2ccccc2nc1N1CCCCCC1)c1ccccc1`, for which the GI50 in the assay with 786-0 is > 100 µM (inactive); in the assay on DU-145, > 100 µM (inactive); in the assay on EKVX, 24.5 µM (inactive); in the assay with HT-29 it was 27.6 µM (inactive); in the assay with IGROV-1, 20.8 µM (inactive); in the assay on K562, > 100 µM (inactive). The GI50 in the assay with MDA-MB-435 was 23 µM (inactive); in the assay on NCI-H226, 27.9 µM (inactive); in the assay with NCI-H460, 15.7 µM (inactive); with OVCAR-4, 4.05 µM (inactive); with RPMI-8226, 48.2 µM (inactive); with SF-539 it was 29.2 µM (inactive). Moreover, the GI50 with SK-MEL-28 was 28.2 µM (inactive); with SN12C, > 100 µM (inactive); in the assay with SNB-75, 21 µM (inactive); with SR, 25.3 µM (inactive); in the assay on TK-10, 16.8 µM (inactive); with UACC-257, 24.5 µM (inactive). For the same molecule, the GI50 in the assay with UO-31 is 12.4 µM (inactive).
As for `NC(=O)NCCCC(NC(=O)OCCCCn1ccc(=O)[nH]c1=O)C(=O)O` (stereo unspecified), the GI50 in the assay with 786-0, with DU-145, in the assay with EKVX, in the assay on HT-29, in the assay on IGROV-1 and in the assay with K562 was > 100 µM (inactive) in each case. Besides, the GI50 in the assay with MDA-MB-435, in the assay on NCI-H226, in the assay on NCI-H460, in the assay on OVCAR-4, in the assay on RPMI-8226 and in the assay with SF-539 was > 100 µM (inactive) in each case. In addition, the GI50 in the assay with SK-MEL-28, in the assay on SN12C, in the assay on SNB-75, with SR, with TK-10 and in the assay on UACC-257 was > 100 µM (inactive) throughout. The GI50 with UO-31 was > 100 µM (inactive).
For `c1ccc(C(/C(=N/c2ccc(Cc3ccc(/N=C(\C(c4ccccc4)c4ccccc4)N4CC4)cc3)cc2)N2CC2)c2ccccc2)cc1`, the GI50 in the assay with 786-0 is 14.8 µM (inactive); in the assay on A498, 12.5 µM (inactive); with DU-145, 12.6 µM (inactive); with EKVX it was 10.1 µM (inactive); in the assay on HT-29, 3.1 µM (inactive); in the assay with IGROV-1 it was 0.942 µM (active). Moreover, the GI50 with K562 is 2.33 µM (inactive); in the assay with MDA-MB-435, 8.73 µM (inactive); in the assay with NCI-H226 it was 14.7 µM (inactive); in the assay on NCI-H460 it was 1.78 µM (inactive); with RPMI-8226 it was 3.65 µM (inactive); in the assay on SF-539, 16.3 µM (inactive). Besides, the GI50 was 9.46 µM (inactive) in the assay on SK-MEL-28; 14.3 µM (inactive) in the assay on SN12C; 1.31 µM (inactive) with SR; 14.2 µM (inactive) in the assay with TK-10; 11.6 µM (inactive) in the assay with UACC-257; 2.6 µM (inactive) with UO-31.
For `N#Cc1ccc(CSC2=C(c3ccc(Cl)cc3)S/C(=C3\SC(SCc4ccc(C#N)cc4)=C(c4ccc(Cl)cc4)S3)S2)cc1`, the GI50 in the assay with 786-0, in the assay with A498, in the assay on DU-145, in the assay with EKVX, with HT-29 and with IGROV-1 was > 100 µM (inactive) throughout. Also, the GI50 in the assay on K562, in the assay on MDA-MB-435, with NCI-H226, in the assay on NCI-H460, in the assay with OVCAR-4 and in the assay with RPMI-8226 was > 100 µM (inactive) in each case. The GI50 with SF-539, in the assay with SK-MEL-28, in the assay on SN12C, in the assay on SR, in the assay on TK-10 and in the assay with UACC-257 was > 100 µM (inactive) throughout.
With `O=C(O)CCCCC1CCSS1` (stereo not drawn) [LIPOIC ACID, ALPHA], the GI50 in the assay with 786-0, in the assay with DU-145, in the assay with EKVX, in the assay on HT-29, in the assay with IGROV-1 and in the assay on K562 was > 100 µM (inactive) throughout. For the same molecule, the GI50 with MDA-MB-435, in the assay with NCI-H226, in the assay with NCI-H460, in the assay with OVCAR-4, in the assay with RPMI-8226 and in the assay with SF-539 was > 100 µM (inactive) throughout. Moreover, the GI50 in the assay on SK-MEL-28 is > 100 µM (inactive); in the assay with SN12C it was > 10 µM (inactive); with SNB-75, 93.8 µM (inactive); in the assay with SR it was > 100 µM (inactive); in the assay with TK-10, > 100 µM (inactive); with UACC-257, > 100 µM (inactive). Moreover, in the assay with UO-31, the GI50 is > 100 µM (inactive).

Values taken from ChEMBL document CHEMBL1201862, “PubChem BioAssay data set” (2004).
